Laboratory results reported in US8097440B1, “Engineered microorganisms capable of producing target compounds under anaerobic conditions” (Gevo, Inc., priority 2008, dated 2012).

Assays:
[1] = biological target: T1, E. coli KARI Ec_IlvC variant Ec_IlvC^Q110A-his6 (Q110A), SEQ ID NO: 21 (Escherichia coli, UniProt P05793, Q110A); test: KARI cuvette assay, purified Ec_IlvC^Q110A-his6; assay type: biochemical; conditions: relative to Ec_IlvC^his6 with NADPH
T1 sequence (P05793 with tags, fused parts or gaps Q110A): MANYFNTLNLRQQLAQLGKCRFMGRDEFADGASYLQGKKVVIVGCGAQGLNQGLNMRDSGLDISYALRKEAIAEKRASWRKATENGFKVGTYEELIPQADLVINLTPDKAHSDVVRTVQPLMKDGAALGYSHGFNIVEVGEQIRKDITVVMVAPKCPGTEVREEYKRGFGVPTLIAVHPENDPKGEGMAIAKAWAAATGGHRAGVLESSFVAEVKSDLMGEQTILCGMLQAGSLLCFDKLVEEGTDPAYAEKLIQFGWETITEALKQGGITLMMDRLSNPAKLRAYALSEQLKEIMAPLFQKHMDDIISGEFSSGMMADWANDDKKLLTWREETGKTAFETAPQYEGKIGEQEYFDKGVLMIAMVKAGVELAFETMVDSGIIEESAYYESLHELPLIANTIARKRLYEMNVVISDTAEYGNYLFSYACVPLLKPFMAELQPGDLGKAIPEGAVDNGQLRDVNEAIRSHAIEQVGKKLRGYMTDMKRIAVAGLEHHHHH
Procedure: (§1) KARI cuvette assay: KARI activity was assayed kinetically by monitoring the decrease in NAD(P)H concentration by measuring the absorbance at 340 nm. A reaction buffer was prepared containing 250 mM potassium phosphate pH 7, 1 mM DTT and 10 mM MgCl2. Cell pellets were resuspended (0.25 g wet weight/mL buffer) in 250 mM potassium phosphate (KPi) buffer containing 1 mM DTT and 10 mM MgCl2. The resuspended cells were lysed by sonication for 1 min with a 50% duty cycle and pelleted at 11000×g and 4° C. for 15 min. A reaction mixture consisting of 910 μl reaction buffer, 50 μl acetolactate, and 20 μl lysate was prepared in a cuvette. The reaction was initiated by addition of 20 μL of 10 mM NAD(P)H. A substrate free control was conducted using reaction buffer without the addition of acetolactate.
Purification of KARI: Cell pellets used for purification were resuspended in purification buffer A (20 mM Tris, 20 mM imidazol, 100 mM NaCl, 10 mM MgCl2, pH 7.4). KARI was purified by IMAC (Immobilized metal affinity chromatography) over a 1 ml Histrap High Performance (histrap HP) column pre-charged with Nickel (GE Healthcare) using an Akta FPLC system (GE Healthcare). […]

[2] = biological target: T2, E. coli KARI Ec_IlvC variant Ec_IlvC^6E6-his6 (A71S, R76D, S78D, Q110V), SEQ ID NO: 34 (Escherichia coli, UniProt P05793, A71S/Q110V/R76D/S78D); test: KARI assay, purified Ec_IlvC^6E6-his6; assay type: biochemical
T2 construct: T37 values cited for the gene on pGV1975
T2 sequence (P05793 with tags, fused parts or gaps A71S/R76D/S78D/Q110V): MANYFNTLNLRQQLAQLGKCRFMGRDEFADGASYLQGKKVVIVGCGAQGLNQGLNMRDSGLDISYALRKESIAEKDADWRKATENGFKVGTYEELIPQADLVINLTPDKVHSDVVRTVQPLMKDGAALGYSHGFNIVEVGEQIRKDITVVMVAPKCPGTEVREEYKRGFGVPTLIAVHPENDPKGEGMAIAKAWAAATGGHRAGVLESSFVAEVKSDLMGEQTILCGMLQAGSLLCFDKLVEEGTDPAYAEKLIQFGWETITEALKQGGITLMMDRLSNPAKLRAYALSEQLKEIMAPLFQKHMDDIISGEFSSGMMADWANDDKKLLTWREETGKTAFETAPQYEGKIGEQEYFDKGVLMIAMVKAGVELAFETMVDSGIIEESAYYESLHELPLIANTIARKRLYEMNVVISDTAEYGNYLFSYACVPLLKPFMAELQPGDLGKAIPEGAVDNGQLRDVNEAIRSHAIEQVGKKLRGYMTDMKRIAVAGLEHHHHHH
Procedure: as §1, with “The reaction was initiated by addition of 20 μL of 10 mM NAD(P)H. A substrate free control was conducted using reaction buffer without the addition of acetolactate.” left out
Only 20% of the enzymes of the recombination library were active on NADH. After screening 1,000 clones using the NADH depletion assay at 340 nm, 26 KARI variants were selected for a rescreen by the high-throughput assay described in Example 14 and eight thereof were expressed in 25 ml LBamp medium in shake flasks according to the protocol for cell growth and protein expression in shake flasks as described in Example 14, purified according to the protocol for purification of KARI enzymes as described in Example 14, and NAD(P)H depletion at 340 nm was measured again. […] The KM values of variants Ec_llvC^2H10-his6 and Ec_llvC^6E6-his6 were measured and the catalytic efficiencies were calculated. […]

NC(=O)C1=CN([C@@H]2O[C@H](COP(=O)(O)OP(=O)(O)OC[C@H]3O[C@@H](n4cnc5c(N)ncnc54)[C@H](O)[C@@H]3O)[C@@H](O)[C@H]2O)C=CC1 [NADH, nicotinamide adenine dinucleotide]
(kcat/KM with NADH)/(kcat/KM of Ec_IlvC^his6 with NADPH) [1]: 13% | kcat/KM ([2]; Example 15, expressed in E. coli BL21(DE3), purified): 74,045 M^−1 * s^−1 | activity (in terms of kcat/KM) on NADH compared to wild-type activity on NADPH ([2]; best variant, relative to wild-type with NADPH): 85%
